Where two headings read alike, the source gives them in different places.

Drawing on patent publication US20210198277A1, “AMINE-SUBSTITUTED ARYL OR HETEROARYL COMPOUNDS” (Epizyme, Inc., priority 2016, published 2021), this text covers IC50 for 36 molecules.

Test [1] has as its target T1, EHMT1 (Homo sapiens, UniProt Q9H9B1).
T1 sequence (Q9H9B1 1-1298): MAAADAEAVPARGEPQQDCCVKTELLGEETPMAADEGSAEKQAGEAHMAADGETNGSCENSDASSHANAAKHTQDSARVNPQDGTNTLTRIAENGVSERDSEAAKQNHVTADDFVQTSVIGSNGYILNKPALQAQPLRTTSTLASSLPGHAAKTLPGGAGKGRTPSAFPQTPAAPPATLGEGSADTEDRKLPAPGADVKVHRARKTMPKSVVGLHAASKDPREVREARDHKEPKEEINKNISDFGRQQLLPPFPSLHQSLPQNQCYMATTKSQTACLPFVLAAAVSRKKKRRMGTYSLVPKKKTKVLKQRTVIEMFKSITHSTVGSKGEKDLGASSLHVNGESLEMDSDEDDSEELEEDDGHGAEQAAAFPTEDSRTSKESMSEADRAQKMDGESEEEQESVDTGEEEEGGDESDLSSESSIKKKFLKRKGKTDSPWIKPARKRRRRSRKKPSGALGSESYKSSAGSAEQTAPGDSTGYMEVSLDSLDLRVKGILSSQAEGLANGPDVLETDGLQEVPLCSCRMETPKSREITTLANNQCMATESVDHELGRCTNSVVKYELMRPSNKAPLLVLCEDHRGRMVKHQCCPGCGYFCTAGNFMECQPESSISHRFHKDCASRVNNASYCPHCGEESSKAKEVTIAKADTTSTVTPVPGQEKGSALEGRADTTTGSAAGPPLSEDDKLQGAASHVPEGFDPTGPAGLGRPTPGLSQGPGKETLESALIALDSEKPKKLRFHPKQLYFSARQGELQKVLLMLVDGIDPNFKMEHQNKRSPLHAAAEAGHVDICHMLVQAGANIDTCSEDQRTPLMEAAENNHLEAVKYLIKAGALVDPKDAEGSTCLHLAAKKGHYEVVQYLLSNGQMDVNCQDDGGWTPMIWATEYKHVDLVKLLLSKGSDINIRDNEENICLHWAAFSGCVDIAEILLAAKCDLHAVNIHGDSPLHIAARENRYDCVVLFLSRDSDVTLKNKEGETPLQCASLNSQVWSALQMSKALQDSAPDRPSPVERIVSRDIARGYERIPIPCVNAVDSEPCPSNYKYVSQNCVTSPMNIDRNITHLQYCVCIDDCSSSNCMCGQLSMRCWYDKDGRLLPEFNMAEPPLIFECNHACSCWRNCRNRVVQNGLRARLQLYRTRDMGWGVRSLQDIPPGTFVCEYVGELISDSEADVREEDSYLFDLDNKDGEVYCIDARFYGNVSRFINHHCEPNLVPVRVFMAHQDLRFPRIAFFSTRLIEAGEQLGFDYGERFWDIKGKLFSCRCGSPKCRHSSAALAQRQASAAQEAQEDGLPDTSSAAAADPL
The test can be described thus: EHMT1 enzyme assay on peptide substrate (EHMT1 PEP). Type of test: biochemical.

Test [2] concerns the target T2, human EHMT2 913-1193 (Homo sapiens, UniProt Q96KQ7).
T2 construct: recombinant purified human EHMT2 913-1193, Viva; purchased Viva
T2 sequence (Q96KQ7 913-1193): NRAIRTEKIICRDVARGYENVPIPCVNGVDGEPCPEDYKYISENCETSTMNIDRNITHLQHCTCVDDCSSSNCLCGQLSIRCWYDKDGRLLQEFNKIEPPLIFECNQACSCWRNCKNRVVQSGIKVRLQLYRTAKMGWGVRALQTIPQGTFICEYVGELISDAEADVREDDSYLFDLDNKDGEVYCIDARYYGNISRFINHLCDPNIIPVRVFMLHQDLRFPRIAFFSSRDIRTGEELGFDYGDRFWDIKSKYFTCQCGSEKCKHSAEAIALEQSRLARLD
Description: EHMT2 enzyme assay on histone peptide substrate (EHMT2 PEP). Format: biochemical. Summed up:
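Compounds (10-point, 3-fold dilutions, top 50 μM final, 2% DMSO) preincubated 30 min with 0.031 nM EHMT2 in 20 mM Bicine pH 7.5, 0.002% Tween 20, 0.005% gelatin, 1 mM TCEP. Biotinylated histone peptide methylated with ^3H-SAM 60 min at room temperature. Quenched with unlabeled SAM; product captured on streptavidin Flashplate, scintillation counted.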

[3] abbreviates: Table VI, read-out: EHMT1 PEP IC50.
Where [4] appears, read: Table VI, read-out: EHMT2 PEP IC50.
The mark [5] stands for this setting: Table III, read-out: EHMT1 PEP (IC50 μM).
Where [6] appears, read: Table III, read-out: EHMT2 PEP (IC50 μM).

For `COc1cc2c(C)cc(N3CCCCC3)nc2cc1OCCCN1CCCC1` [Compound 810], the IC50 was less than 0.1 µM in test [1] (setting [3]) and 0.1 to 1 µM in test [2] (setting [4]).
On to `CNc1cc(C)nc(Nc2cc(OCCCN3CCCC3)c3oncc3c2)n1` [Compound 793], for which the IC50 in test [1] (setting [3]) and in test [2] (setting [4]) was greater than 10 µM throughout.
Regarding `CNc1cc(C2CCOCC2)c2cc(OC)c(OC[C@@H]3CCN(C)C3)cc2n1` [Compound 803], the results for the IC50 in test [1] (setting [3]) and in test [2] (setting [4]) were less than 0.1 µM and 0.1 to 1 µM, respectively.
As for `COc1cnc(Nc2ccnc3[nH]ccc23)cc1OCCCN1CCCC1` [Compound 335, N-(5-methoxy-4-(3-(pyrrolidin-1-yl)propoxy)pyridine-2-yl)-1H-pyrrolo[2,3-b]pyridin-4-amine], the IC50 in test [1] (setting [5]) and in test [2] (setting [6]) was 0.1 to 1 µM each time.
On to `COc1ccc(Nc2cccc3ncnn23)cc1OCCCN1CCCC1` [Compound 344], for which the IC50 in test [1] (setting [5]) and in test [2] (setting [6]) was greater than 10 µM throughout.
`COc1ccc(OCCCN2CCCC2)cc1Nc1nccc(NCC2CCOCC2)n1` [Compound 351]: the IC50 in test [1] (setting [5]) and in test [2] (setting [6]) was greater than 10 µM in each case.
As to `COc1ccc(Nc2nc(C)c(F)c(NC(C)C)n2)cc1OCCCN1CCCC1` [Compound 337], the IC50 in test [1] (setting [5]) was in the range of 0.1 to 1 µM; in test [2] (setting [6]) it was 1 to 10 µM.
For the molecule `CNc1ccnc(Nc2ccc(OC)c(OCCCN3CC(F)C3)c2)n1` [Compound 354], the results for the IC50 in test [1] (setting [5]) and in test [2] (setting [6]) were 0.1 to 1 µM and 1 to 10 µM, respectively.
In the same order, the values of `CNc1cc(Nc2cc(OCCCN3CCCC3)c(OC)cn2)ncn1` [Compound 324, N^4-(5-methoxy-4-(3-(pyrrolidin-1-yl)propoxy)pyridin-2-yl)-N^6-methylpyrimidine-4,6-diamine] are 1 to 10 µM and 1 to 10 µM.
Turning to `CNc1cc(C)nc(Nc2cnc(OC)c(OC[C@@H]3CCN(C4CCC4)C3)c2)n1` [Compound 798], the IC50 in test [1] (setting [3]) was less than 0.1 µM; in test [2] (setting [4]), 0.1 to 1 µM.
Turning to `COc1cnc(Nc2nccc3nccn23)cc1OC[C@@H]1CCNC1` [Compound 801], the IC50 in test [1] (setting [3]) and in test [2] (setting [4]) was greater than 10 µM throughout.
For `CNc1cc(C(C)C)c2cc(OC)c(OCCCN3CCCC3)cc2n1` [Compound 817], the IC50 in test [1] (setting [3]) and in test [2] (setting [4]) was less than 0.1 µM in each case.
On to `COc1ccc(Nc2nc(C)cc(NC(C)C)n2)cc1OC[C@@H]1CCNC1` [Compound 800], for which the IC50 in test [1] (setting [3]) and in test [2] (setting [4]) was less than 0.1 µM in each case.
`CNc1cc(C)nc(Nc2ccc(OC)c(O[C@H]3C[C@H](N(C)C)C3)c2)n1` (single isomer, unassigned) [Compound 329, N^2-(3-((1r,3r)-3-(dimethylamino)cyclobutoxy)-4-methoxyphenyl)-N^4,6-dimethylpyrimidine-2,4-diamine]: the IC50 in test [1] (setting [5]) and in test [2] (setting [6]) was 1 to 10 µM throughout.
For the molecule `CNc1cc2nccn2c(Nc2cc(OCCCN3CCCC3)c(OC)cn2)n1` [Compound 611], the half-maximal inhibitory concentration (IC50) in test [1] (setting [3]) and in test [2] (setting [4]) was 1 to 10 µM throughout.
Regarding `COc1cc2c(C3CCN(C)CC3)cc(N3CCCCC3)nc2cc1OCCCN1CCCC1` [Compound 812], the IC50 in test [1] (setting [3]) and in test [2] (setting [4]) was less than 0.1 µM throughout.
For the molecule `CNc1cc(C)nc(Nc2ccc(OC)c(O[C@H]3C[C@H](CN(C)C)C3)c2)n1` [Compound 331, N^2-(3-((1r,3r)-3-((dimethylamino)methyl)cyclobutoxy)-4-methoxyphenyl)-N^4,6-dimethylpyrimidine-2,4-diamine], the IC50 in test [1] (setting [5]) and in test [2] (setting [6]) was greater than 10 µM each time.
Regarding `CCS(=O)(=O)N1CCC(c2cc(C)nc3cc(OCCCN4CCCC4)c(OC)cc23)CC1` [Compound 836], the IC50 in test [1] (setting [3]) and in test [2] (setting [4]) was 0.1 to 1 µM throughout.
For the molecule `COc1cc2c(C3CCN(CCC(F)(F)F)CC3)cc(C)nc2cc1OCCCN1CCCC1` [Compound 838], the IC50 in test [1] (setting [3]) and in test [2] (setting [4]) was less than 0.1 µM throughout.
With `CNC(=O)c1cc(C)nc(Nc2ccc(OC)c(OCCCN3CCCC3)c2)n1` [Compound 854], the IC50 in test [1] (setting [3]) and in test [2] (setting [4]) was greater than 10 µM each time.
Turning to `CNc1cc(C)nc(Nc2cnc(OC)c(OCCCN3CCCC3)c2)n1` [Compound 332, N^2-(6-methoxy-5-(3-(pyrrolidin-1-yl)propoxy)pyridin-3-yl)-N^4,6-dimethylpyrimidine-2,4-diamine], the IC50 in test [1] (setting [5]) and in test [2] (setting [6]) was less than 0.1 µM throughout.
As for `COc1cc2c(C3CCN([C@@H]4CCOC4)CC3)cc(C)nc2cc1OCCCN1CCCC1` [Compound 863], the 50% inhibitory concentration (IC50) in test [1] (setting [3]) and in test [2] (setting [4]) was less than 0.1 µM each time.
`COc1ccc(Nc2nccc(NCC3CCOCC3)n2)cc1OC1CCC2(CC1)CCN(C)C2` (stereo not drawn) [Compound 259, N^2-(4-methoxy-3-((2-methyl-2-azaspiro[4.5]decan-8-yl)oxy)phenyl)-N^4-((tetrahydro-2H-pyran-4-yl)methyl)pyrimidine-2,4-diamine]: the IC50 in test [1] (setting [5]) and in test [2] (setting [6]) was greater than 10 µM throughout.
For the molecule `COc1ccc(Nc2nccc(-n3nc(C)cc3C)n2)cc1OCCCN1CCCC1` [Compound 338], the IC50 in test [1] (setting [5]) and in test [2] (setting [6]) was greater than 10 µM throughout.
For the molecule `COc1ccc(Nc2ncc3ncn(C)c3n2)cc1OCCCN1CCCC1` [Compound 343], the IC50 in test [1] (setting [5]) and in test [2] (setting [6]) was greater than 10 µM in each case.
On to `COc1ccc(Nc2nccc(-c3cnn(C)c3)n2)cc1OCCCN1CCCC1` [Compound 348], for which the IC50 in test [1] (setting [5]) and in test [2] (setting [6]) was greater than 10 µM throughout.
Turning to `COc1cc2c(C3CCN(CC(F)(F)F)CC3)nc(C)nc2cc1OCCCN1CCCC1` [Compound 841], the IC50 in test [1] (setting [3]) and in test [2] (setting [4]) was greater than 10 µM throughout.
Consider `CNc1cc(Nc2cc(OCCCN3CCCC3)c(OC)cn2)nc(C)n1` [Compound 325, N^4-(5-methoxy-4-(3-(pyrrolidin-1-yl)propoxy)pyridin-2-yl)-N^6,2-dimethylpyrimidine-4,6-diamine], for which the IC50 in test [1] (setting [5]) and in test [2] (setting [6]) was 1 to 10 µM throughout.
Regarding `COc1ccc(Nc2nccc(NCC3CCOCC3)n2)cc1NCCCN1CCCC1` [Compound 350], the IC50 in test [1] (setting [5]) and in test [2] (setting [6]) was 0.1 to 1 µM in each case.
Consider `CNc1cc(C)c2cc(OC)c(C#CCN3CCCC3)cc2n1` [Compound 859], for which the IC50 in test [1] (setting [3]) and in test [2] (setting [4]) was less than 0.1 µM each time.
On to `COc1cc2c(C)nc(N3CCCCC3)nc2cc1OCCCN1CCCC1` [Compound 811], for which the IC50 in test [1] (setting [3]) and in test [2] (setting [4]) was greater than 10 µM in each case.
Consider `CNc1cc(C2CCOCC2)c2cc(OC)c(OC[C@@H]3CCNC3)cc2n1` [Compound 802], for which the IC50 in test [1] (setting [3]) and in test [2] (setting [4]) was less than 0.1 µM each time.
For the molecule `COc1ccc(Nc2ccc3ncc(C)n3n2)cc1OCCCN1CCCC1` [Compound 347], the IC50 in test [1] (setting [5]) and in test [2] (setting [6]) was 1 to 10 µM each time.
For the molecule `CNc1nc(Nc2ccc(OC)c(OCCCN3CCCC3)c2)nc2c1CCC2` [Compound 328, N^2-(4-methoxy-3-(3-(pyrrolidin-1-yl)propoxy)phenyl)-N^4-methyl-6,7-dihydro-5H-cyclopenta[d]pyrimidine-2,4-diamine], the 50% inhibitory concentration (IC50) in test [1] (setting [5]) and in test [2] (setting [6]) was 0.1 to 1 µM throughout.
Turning to `COc1cc(N(C)C2CCOCC2)ncc1OCC1CCNC1` (stereo not drawn) [Compound 808], the half-maximal inhibitory concentration (IC50) in test [1] (setting [3]) is 1 to 10 µM; in test [2] (setting [4]), greater than 10 µM.
In the same order, the values of `CNc1cc(CC2CCOCC2)c2cc(OC)c(OCCCN3CCCC3)cc2n1` [Compound 823] are less than 0.1 µM and less than 0.1 µM.

As a reminder, the IC50 is the point on the concentration scale where inhibition reaches its midpoint.
